Measured values published in publication PMC7938888, “Antidepressant drugs act by directly binding to TRKB neurotrophin receptors” (Cell, 2021).
Entries after “also recorded” stand apart in the source; their conditions may differ.

Key:
TRKB/TRKA.TM = test: Cell-free ligand binding assay, chimeric TRKB with TMD of TRKA; conditions: biotinylated fluoxetine
mice [1] = test: BrdU incorporation (hippocampal neurogenesis); format: in vivo, mouse; conditions: FLX 15 mg/kg/day 21 days p.o.
Method: Animals: both males and females were used in this experiment. The Bromodeoxyuridine (BrdU) (Sigma) was administered intraperitoneally at the dose of 75 mg/kg four times every 2 hr to reach 300 mg/kg total for each animal. […] On day 21 of the drug treatment, the animals were euthanized by CO2, brains were quickly removed, followed by hippocampus dissection on ice, instantly frozen on dry ice and stored at −80°C until further use.
A semiquantitative dot-blot method was performed as previously described with minor modifications ([Wu and Castrén, 2009]). To isolate the DNA of the hippocampus samples, DNeasy® Blood and Tissue Kit (QIAGEN, Germany) was used. The extraction procedure was as per the manufacturer’s instruction. The DNA purity was assessed by the spectrophotometer NanoDrop 2000C (ThermoFisher Scientific, USA). DNA was incubated with 1 volume of 4N NaOH solution for 30 min at room temperature to render it as single stranded and immediately kept on ice to prevent reannealing. The DNA solution was neutralized by an equal volume of 1M Tris-HCl (pH 6.8). The single-stranded neutralized DNA (1ug) was dot-blotted onto a nylon transfer membrane (Schlleicher and Schuell, Keene, NH) with a dot-blot apparatus (Minifold, Schlleicher and Schuell) under vacuum and the DNA was fixed by ultraviolet cross-linker (1200 μJ × 100, Stratagene, La Jolla, CA). […]

mice [2] = test: Ocular dominance plasticity (monocular deprivation, intrinsic signal imaging); format: in vivo, mouse; conditions: adult mice, 10 mg/kg i.p. every second day for 8 days
Method: The “transparent skull” preparation was executed as described in literature ([Steinzeig et al., 2017]). Briefly, adult female mice (20-22 weeks old) were anesthetized via i.p. injection with a mixture containing: 0.05 mg/kg fentanyl (Hameln, Germany); 5 mg/kg midazolam (Hameln, Germany); 0.5 mg/kg medetomidine (Orion Pharma, Finland); diluted in saline (B Braun, Germany). The animals’ eyes were covered with protective-gel (Alcon, UK). The animal’s head was shaved and disinfected with ethanol and Betadine. The mouse head was then fixed on the stereotaxic frame and the temperature was maintained at 37°C. A mixture of lidocaine and adrenaline (Orion Pharma, Finland) was applied locally on the head and the skin was cut with spring scissors. The incision area was restricted 2 mm above the bregma and caudal edge of intraparietal bone. The scalp was removed and a focused air stream and a cotton swab were used to clean and stop bleeding. The periosteum was gently scratched away from the skull with an eye scalpel and the temporal muscles were pushed aside, in order to expose enough space around the area of interest to attach the metal holder. When the skull was smooth, white and dry, fat was removed from the skull rapidly by passing on it a cotton swab soaked in acetone and the air current was used to avoid its penetration into the bone. Then, with a metal stick, a thin layer of cyanoacrylate glue (Loctite 401, Henkel, Germany) was applied to the surface of the skull, in order to make the skull transparent. After waiting 10 minutes for the glue to dry, a first layer of acryl was applied on the skull surface with a brush. Acryl was used to prolong the life of the transparency and was prepared by stirring acrylic powder (EUBECOS, Germany) with methacrylate liquid (Densply, Germany) until a nail-polish consistency was reached. After 30 minutes, a second layer of acryl was applied and was left to dry overnight. Finally, the animals were injected s.c. with 5 mg/kg Carprofen (ScanVet, Nord Ireland) for postoperative analgesia and i.p. with a wake-up composed by: 1.2 mg/kg Naloxone (Orpha-Devel Handels und Vertriebs GmbH, Austria), opioid receptor antagonist; 0.5 mg/kg Flumazenil (Hameln, Germany), GABA-A receptor antagonist; 2.5 mg/kg Atipamezole (Vet Medic animal Health Oy, Finland), adrenergic receptor antagonist; diluted in saline (B Braun, Germany). The next day, isoflurane at 4% was used for a couple of minutes to induce the anesthesia and then it was reduced at 2% for the procedure. The acryl layer was polished only on the area of interest, using a hand drill with a polishing bit. […]
Optical imaging. The saturation of haemoglobin in the primary visual cortex of the right hemisphere was measured to assess cortical activity ([Cang et al., 2005]; [Kalatsky and Stryker, 2003]). […]

`CNCCC(Oc1ccc(C(F)(F)F)cc1)c1ccccc1` (stereo not shown) [FLX, fluoxetine] was tested, and the “binding to chimeric TRKB with the TMD of TRKA” value (TRKB/TRKA.TM) was “failed to bind; also recorded: very low”, the “survival of newborn hippocampal neurons” value (mice [1]; TRKB.Y433F mice) was “no increase was observed” and the “survival of newborn hippocampal neurons” value (mice [1]; wild-type mice) was “significantly increased survival of newborn hippocampal neurons”.
In the case of `CNC1(c2ccccc2Cl)CCCCC1=O` (stereo not shown) [KET, ketamine], the “shift in ocular dominance after 7-day monocular deprivation” value (mice [2]) is reported as “significant shift in OD”.
